Structures can show the parent of a compound that is named as a salt. Where two headings read alike, the source gives them in different places.
Columns and labels:
EGFR = molecular target: T1, EGFR (Homo sapiens, UniProt P00533); assay: EGFR in-cell Western (ICW) screening protocol (EGFR inhibition assay); format: cell-based; set-up: ICW 1 / ICW 2 / ICW Avg: unit not given here; conditions: for ICW Avg / ICW 1 / ICW 2: ICW assay; for ICW Avg: average of runs 1 and 2; for ICW 1: run 1; for ICW 2: run 2; for ICW assay: Table 10; for ICW assay / ICW Screen: % Inhibition of EGF dependent EGFR phosphorylation in A431 cells, compound 125 μM in assay; for ICW Screen: Table 11
T1 construct: host or cells: A431
In short: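 Serum-starved A431 cells (2 h) were pretreated with compound for 4 h at 37° C, then stimulated with EGF (10 ng/ml final, or 6.6 or 12.5 ng/ml in some runs) for 10 min. After formaldehyde fixation, phospho-EGFR (Tyr1173, or Tyr1045 in some runs) and total EGFR were detected by in-cell Western immunostaining.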

MDBK line = assay: MTT Cell Proliferation Assay, MDBK cells; format: cell-based, bovine
In short: (§1)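 Viability was measured by mitochondrial MTT reduction after cells were exposed to compound for 3 days in reduced-serum medium. Inhibition was calculated per plate against 0.5% DMSO controls.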

[1] = test system: epithelial carcinoma A431 cell line; assay: MTT Cell Proliferation Assay, A431 cells; format: cell-based; conditions: for MTT Assay IC50(A431/MDBK): ratio in parentheses: ratio MDBK IC50 / A431 IC50 (selectivity)
In short: as §1

[2] = Bos taurus, MDBK, MDBK cells, second value of cell, read-out: MTT Assay IC50(A431/MDBK): MDBK
[3] = Homo sapiens, A-431, A431 cells, first value of cell, read-out: MTT Assay IC50(A431/MDBK): A431
[4] = second value of 'a/b (c)', taken as MDBK cells, read-out: MTT Screen, second value of cell
[5] = first value of 'a/b (c)', taken as A431 cells, read-out: MTT Screen, first value of cell
[6] = Bos taurus, MDBK, 72 h, Table 10, second of x/y(ratio): MDBK, three day treatment, unit not printed (doses in μM), read-out: MTT assay (second value)
[7] = Homo sapiens, A-431, 72 h, Table 10, first of x/y(ratio): A431, three day treatment, unit not printed (doses in μM), read-out: MTT assay (first value)
[8] = A431 cells, first value of cell, read-out: MTT Assay IC50(A431/MDBK): A431
[9] = Bos taurus, MDBK, second value of 'a/b (c)', taken as MDBK cells, read-out: MTT Screen, second value of cell
[10] = Homo sapiens, A-431, first value of 'a/b (c)', taken as A431 cells, read-out: MTT Screen, first value of cell
[11] = Bos taurus, MDBK, Table 11, second of x/y(ratio): MDBK, unit not printed (doses in μM), read-out: MTT Screen (second value)
[12] = Homo sapiens, A-431, 72 h, Table 11, first of x/y(ratio): A431, unit not printed (doses in μM), read-out: MTT Screen (first value)

T1 sequence (P00533 25-1210): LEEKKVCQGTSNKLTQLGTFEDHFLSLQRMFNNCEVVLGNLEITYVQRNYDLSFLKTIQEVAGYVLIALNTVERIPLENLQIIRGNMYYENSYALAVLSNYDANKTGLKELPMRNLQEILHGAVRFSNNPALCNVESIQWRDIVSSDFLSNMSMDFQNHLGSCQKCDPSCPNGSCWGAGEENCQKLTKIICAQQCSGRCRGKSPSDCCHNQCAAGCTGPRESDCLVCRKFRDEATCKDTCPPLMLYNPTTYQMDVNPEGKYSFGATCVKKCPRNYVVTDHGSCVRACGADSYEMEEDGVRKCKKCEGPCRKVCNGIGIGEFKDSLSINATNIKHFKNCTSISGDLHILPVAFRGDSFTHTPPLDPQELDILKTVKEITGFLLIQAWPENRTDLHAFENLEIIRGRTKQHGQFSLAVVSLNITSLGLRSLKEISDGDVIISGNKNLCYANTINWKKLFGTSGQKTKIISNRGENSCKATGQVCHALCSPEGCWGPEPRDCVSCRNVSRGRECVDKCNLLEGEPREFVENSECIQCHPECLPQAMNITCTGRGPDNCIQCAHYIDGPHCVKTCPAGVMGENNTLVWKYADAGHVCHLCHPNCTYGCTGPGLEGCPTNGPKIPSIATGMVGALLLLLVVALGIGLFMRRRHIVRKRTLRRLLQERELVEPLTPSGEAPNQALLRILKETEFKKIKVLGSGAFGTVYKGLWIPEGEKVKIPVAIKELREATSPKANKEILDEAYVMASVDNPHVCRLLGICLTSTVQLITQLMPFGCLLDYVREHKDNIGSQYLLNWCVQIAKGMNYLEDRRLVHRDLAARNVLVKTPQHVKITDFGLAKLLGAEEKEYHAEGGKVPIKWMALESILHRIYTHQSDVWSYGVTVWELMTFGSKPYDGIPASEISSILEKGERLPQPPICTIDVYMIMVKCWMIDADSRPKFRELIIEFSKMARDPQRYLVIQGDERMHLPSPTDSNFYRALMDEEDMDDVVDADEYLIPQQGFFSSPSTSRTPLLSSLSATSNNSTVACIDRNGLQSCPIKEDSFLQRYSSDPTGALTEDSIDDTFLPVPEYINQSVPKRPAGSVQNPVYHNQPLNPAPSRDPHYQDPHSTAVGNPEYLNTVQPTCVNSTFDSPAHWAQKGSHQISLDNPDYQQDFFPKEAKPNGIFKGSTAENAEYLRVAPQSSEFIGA

SMILES | ICW Avg (EGFR) | ICW 1 (EGFR) | ICW 2 (EGFR) | IC50 [1, 3] [µM] | MTT Assay IC50(A431/MDBK): ratio in parentheses [1] | IC50 (MDBK line; [2]) [µM] | further results
Cc1ccc2c(C)nc(Nc3nc(-c4ccccc4)cc(=O)[nH]3)nc2c1 [10381 + TFA] | 82.76 | 87.04 | 78.48 | 2.1 | 1.43 | 3.01 | –
CCCc1c[nH]c(Nc2nc(-c3ccccc3)c3cc(Cl)ccc3n2)nc1=O [12660 + TFA] | 61.63 | 49.87 | 73.40 | 41.5 | 0.99 | 41.1 | –
CCCc1cc(=O)[nH]c(Nc2nc(C)c3ccc(OC)cc3n2)n1 [12669 + TFA] | 25.42 | 11.73 | 39.10 | 49.3 | 0.74 | 36.7 | –
Cc1ccc2c(C)nc(Nc3nc(CCC(C)C)cc(=O)[nH]3)nc2c1 [11783 + TFA] | 60.19 | 66.95 | 53.44 | 18.2 | 0.82 | 15 | –
COc1ccc(OCC(=O)NC(=S)Nc2ccc(S(=O)(=O)Nc3cc(C)cc(C)c3)cc2)cc1 [AD4-11396] | – | – | – | – | – | – | ICW Screen (ICW Inhibition) (EGFR): 30.745; IC50 (MDBK line; [4]): 21.2 µM; IC50 [1, 5]: 25.1 µM
CCCCc1c(C)nc(Nc2nc(C)c3ccc(C)cc3n2)[nH]c1=O [12776 + TFA] | 25.32 | 21.34 | 29.30 | 29.7 | 0.64 | 19 | –
CCOc1ccccc1NC(=S)Nc1ccc(S(=O)(=O)Nc2ccc(Cl)c(Cl)c2)cc1 [AD4-12443] | – | – | – | – | – | – | ICW assay (EGFR): 44.7896; IC50 (MDBK line; [6]): 6.91 µM; IC50 [1, 7]: 6.71 µM
CCCc1cc(=O)[nH]c(Nc2nc(C)c3cc(C)c(C)cc3n2)n1 [12654 + TFA] | 36.07 | 37.92 | 34.22 | – | 0.79 | 12.6 | IC50 [1, 8]: 16 µM
CCOc1ccc2nc(Nc3nc(C)cc(-c4ccccc4)n3)nc(C)c2c1 [12688 + TFA] | 36.40 | 45.86 | 26.95 | 5.04 | 0.71 | 3.58 | –
CCc1ccc(NC(=S)Nc2ccc(S(=O)(=O)Nc3cc(Cl)cc(Cl)c3)cc2)cc1 [AD4-12436] | – | – | – | – | – | – | ICW assay (EGFR): 108.826; IC50 (MDBK line; [6]): 5.53 µM; IC50 [1, 7]: 5.47 µM
Cc1ccc(NS(=O)(=O)c2ccc(NC(=S)NC(=O)CC(C)C)cc2)c(C)c1 [AD4-12010] | – | – | – | – | – | – | ICW Screen (ICW Inhibition) (EGFR): 33.772; IC50 (MDBK line; [9]): 6.16 µM; IC50 [1, 10]: 6.68 µM
O=C(NC(=S)Nc1ccc(S(=O)(=O)N2CCCCCC2)cc1)C1CCC1 [AD4-12104] | – | – | – | – | – | – | ICW Screen (ICW Inhibition) (EGFR): 41.204; IC50 (MDBK line; [9]): 37.6 µM; IC50 [1, 10]: 39 µM
O=C(CCc1ccco1)NC(=S)Nc1ccc(S(=O)(=O)NCCc2ccccc2)cc1 [AD4-10624] | – | – | – | – | – | – | ICW Screen (ICW Inhibition) (EGFR): 49.448; IC50 (MDBK line; [9]): 16.8 µM; IC50 [1, 10]: 25.6 µM
Cc1ccc(NS(=O)(=O)c2ccc(NC(=S)NC(=O)C3CCC3)cc2)cc1C [AD4-12175] | – | – | – | – | – | – | ICW Screen (ICW Inhibition) (EGFR): 42.36; IC50 (MDBK line; [4]): 9.56 µM; IC50 [1, 5]: 40 µM
Cc1cc(C)c(NS(=O)(=O)c2ccc(NC(=S)Nc3ccc(S(N)(=O)=O)cc3)cc2)c(C)c1 [AD4-12250] | – | – | – | – | – | – | ICW assay (EGFR): 29.3683; IC50 (MDBK line; [6]): 11.6 µM; IC50 [1, 7]: 12.7 µM
O=c1cc(CN2CCN(Cc3ccccc3)CC2)c2cc(Cl)c(O)cc2o1 [AD4-10180] | – | – | – | – | – | – | ICW Screen (EGFR): 32.1; IC50 (MDBK line; [11]): 36.3 µM; IC50 [1, 12]: 16.7 µM
CN1CCN(S(=O)(=O)c2ccc(NC(=S)NC(=O)/C=C/c3cccs3)cc2)CC1 [AD4-12060] | – | – | – | – | – | – | ICW Screen (ICW Inhibition) (EGFR): 34.272; IC50 (MDBK line; [9]): 40.5 µM; IC50 [1, 10]: 48.5 µM
CC1CCc2cc(F)ccc2N1S(=O)(=O)c1ccc(NC(=S)Nc2cccc(Cl)c2Cl)cc1 (centres unmarked) [AD4-12853] | – | – | – | – | – | – | ICW assay (EGFR): 36.92; IC50 (MDBK line; [6]): 7.51 µM; IC50 [1, 7]: 8.76 µM
Cc1ccc2nc(Nc3nc(=O)cc(CSc4ccc(Cl)cc4)[nH]3)nc(C)c2c1 [11826 + TFA] | 37.16 | 40.52 | 33.80 | 49.4 | 0.88 | 43.3 | –
CC(C)CC(=O)NC(=S)Nc1ccc(S(=O)(=O)Nc2ccccc2)cc1 [AD4-11975] | – | – | – | – | – | – | ICW Screen (ICW Inhibition) (EGFR): 75.826; IC50 (MDBK line; [9]): 17.2 µM; IC50 [1, 10]: 17.5 µM
CC1CCc2cc(F)ccc2N1S(=O)(=O)c1ccc(NC(=S)Nc2ccc(F)c(Cl)c2)cc1 (centres unmarked) [AD4-12836] | – | – | – | – | – | – | ICW assay (EGFR): 46.1658; IC50 (MDBK line; [6]): 8.43 µM; IC50 [1, 7]: 9.32 µM
O=C(NC(=S)Nc1ccc(S(=O)(=O)Nc2ccccc2)cc1)C1CCC1 [AD4-12044] | – | – | – | – | – | – | ICW Screen (ICW Inhibition) (EGFR): 34.334; IC50 (MDBK line; [9]): 33.1 µM; IC50 [1, 10]: 63.2 µM
Cc1nc(Nc2nc3c(c(-c4ccccc4)n2)CCCC3)nc2c(C)cccc12 [12229 + TFA] | 25.97 | 16.57 | 35.37 | 19.2 | 1.08 | 20.9 | –
Cc1ccc(NC(=S)Nc2ccc(S(=O)(=O)Nc3ccccc3)cc2)cc1Cl [AD4-12844] | – | – | – | – | – | – | ICW assay (EGFR): 112.768; IC50 (MDBK line; [6]): 6.13 µM; IC50 [1, 7]: 6.8 µM
COc1ccc(-c2cc(=O)[nH]c(Nc3nc(C)c4ccc(C)cc4n3)n2)cc1OC [11800 + TFA] | 33.14 | 34.26 | 32.02 | 6.71 | 0.87 | 5.86 | –
CC(C)c1ccc2oc(=O)cc(CN3CCN(Cc4ccc5c(c4)OCO5)CC3)c2c1 [AD4-10192] | – | – | – | – | – | – | ICW Screen (EGFR): 16.772; IC50 (MDBK line; [11]): 43.3 µM; IC50 [1, 12]: 16.5 µM
CCCCc1ccc(NC(=S)Nc2ccc(S(=O)(=O)Nc3ccc(Cl)cc3)cc2)cc1 [AD4-12501] | – | – | – | – | – | – | ICW assay (EGFR): 71.3823; IC50 (MDBK line; [6]): 4.06 µM; IC50 [1, 7]: 4.06 µM
O=c1cc(CN2CCN(Cc3ccc4c(c3)OCO4)CC2)c2cc3c(cc2o1)CCC3 [AD4-10179] | – | – | – | – | – | – | ICW Screen (EGFR): 34.742; IC50 (MDBK line; [11]): 13.9 µM; IC50 [1, 12]: 13.2 µM
Cc1c(O)ccc2c(CN3CCN(Cc4ccc5c(c4)OCO5)CC3)cc(=O)oc12 [AD4-10637] | – | – | – | – | – | – | ICW Screen (EGFR): 30.057; IC50 (MDBK line; [11]): 41.3 µM; IC50 ([1]; Homo sapiens, A-431, Table 11, first of x/y(ratio): A431, unit not printed (doses in μM), read-out: MTT Screen (first value)): 20.8 µM

Further lines, with some results ahead:

ICW Avg (EGFR) | ICW 1 (EGFR) | ICW 2 (EGFR) | IC50 [1, 3] [µM] | MTT Assay IC50(A431/MDBK): ratio in parentheses [1] | SMILES | IC50 (MDBK line; [2]) [µM] | further results
40.45 | 32.19 | 48.71 | 3.57 | 7.98 | COc1cccc(-c2cc(=O)[nH]c(Nc3nc(C)c4cccc(C)c4n3)n2)c1 [compound 11474] | 28.5 | –
49.20 | 33.49 | 64.92 | – | 0.97 | CCCc1c(C)nc(Nc2nc(C)c3cccc(C)c3n2)[nH]c1=O [compound 12742] | – | IC50 (MDBK line; MDBK cells, second value of cell, read-out: MTT Assay IC50(A431/MDBK): MDBK): 18.9 µM; IC50 [1, 8]: 19.6 µM
29.24 | 31.59 | 26.88 | 5.12 | 1.16 | COc1cccc2c(C)nc(Nc3nc(C)c(C)c(=O)[nH]3)nc12 [compound 12615] | 5.93 | –
30.56 | 28.62 | 32.50 | 5.36 | 2.53 | Cc1nc(Nc2nc(CCC(C)C)cc(=O)[nH]2)nc2ccccc12 [compound 11792] | 13.6 | –
54.02 | 52.17 | 55.87 | 4.06 | – | CCOC(=O)c1c(N)nc(Nc2nc(C)c3cc(C)c(C)cc3n2)nc1-c1ccccc1 [compound 11825] | 17.9 | –
35.54 | 33.74 | 37.33 | 5.84 | 0.94 | COc1ccc2nc(Nc3nc(C)c(CCC(C)C)c(=O)[nH]3)nc(C)c2c1 [compound 11456] | 5.48 | –
70.50 | 73.98 | 67.01 | 15.1 | 2.78 | CCOC(=O)c1c(N)nc(Nc2nc(C)c3cc(OC)ccc3n2)nc1-c1ccccc1 [compound 12679] | 42 | –
